Assay [1] has as its system C57BL/6J mice. In words: High-fat-diet induced non-alcoholic fatty liver disease (NAFLD) model. In kind it is in vivo, mouse. To be noted: 15 mg/kg SC or IP q3w; 30 mg/kg PO qd; 65 days. On the procedure:
Male C57BL/6J (Envigo, Israel) mice (3-4 weeks of age) were fed ad libitum a high fat, no high carbohydrate diet (modified Western diet, WD) with 42% kcal from fat and containing 0.1% cholesterol (Harlan TD.88137) with normal water (without high fructose-glucose solution) for […] prior to treatment initiation. Control mice were fed a standard chow diet (CD, Harlan TD.7012) with normal water (NW). Compound of Formula 2 was administrated on the 85th day of the high fat diet (15 mg/kg, for S.C and IP at q3w regiment; 30 mg/kg for PO at qd regiment) for 65 days. Mock treated (vehicle) control group was administrated with IP injections at the same volume and regiment as a corresponding treated group for 65 days. Body weight of animals was determined prior to the treatment initiation and the administered volume of the compound of Formula 2 was adjusted according to the body weight. All animals were euthanized 24 hours post last dose administration. At necropsy liver and mesenteric fat wet weights were determined. Liver and mesenteric fat were fixed with 4% buffered formalin, embedded in paraffin, sections and H&E stained. Steatohepatitis was defined by the presence of steatosis, inflammation and hepatocellular ballooning, as per the FLIP algorithm. The severity of steatosis, lobular inflammation and hepatocellular ballooning were scored using the NASH-Clinical Research Network (CRN) criteria. NAFLD activity score (NAS) was calculated by adding the scores of: steatosis (maximal score 3) is defined by more than 66% of hepatocytes containing fat droplets; lobular inflammation (maximal score 3) is defined by >4 foci/200 field; hepatocyte ballooning (maximal score 2) is defined by many cells/prominent ballooning. Ordinary one-way ANOVA statistical analysis was performed.

Assay [2] deals with primary human monocytes on TNF-alpha-activated HUVECs. In words: Shear flow assay: monocyte adhesion and transmigration on TNFα-activated HUVECs. In kind it is cell-based. The source says: A flow assay that allows detailed analysis of individual leukocyte interactions with endothelial cells (ECs), described in Bradfield et al. (Bradfield et al., 2016, PloS One, July 21; 11(7); Bradfield et al., 2007, Blood. October 1; 110(7):2545-55) was used for evaluation of the biological effects of the compounds according to the invention. This method allows the determination of the possible effects of the compounds on three major phases in leukocyte migration: the capture of free non-bound leukocytes by endothelium, migration of leukocytes on the endothelium surface, and transendothelial migration (transmigration) of human leukocytes through the HUVECs layer. Post transmigrational events can also be monitored by tracking individual leukocytes. […] Human umbilical vein endothelial cells (HUVECs) were cultivated in the plastic channel of the flow chamber, and human leukocyte were flowed over them using a calibrated pump, allowing monocyte capture, adhesion and migration to be monitored.
Human umbilical vein endothelial cells (HUVEC) were isolated by collagenase treatment of umbilical veins as previously described (Wall, R. T., et al., Factors influencing endothelial cell proliferation in vitro. J Cell Physiol, 1978. 96(2): p. 203-13) and maintained in M199 containing 20% fetal calf serum (FCS), 15 μg/mL endothelial cell growth supplement (Upstate Biotechnology, Lake Placid, NY), 100 μg/mL heparin, 50 μM hydrocortisone, and 10 μg/mL vitamin C. Cells were cultured up to a maximum of passage 5.
Peripheral blood mononuclear cells (PBMCs) were first isolated from blood of healthy donors followed by monocyte purification using a monocyte isolation kit (Miltenyi Biotec, Bergisch Gladbach, Germany). Purity and activity of monocytes were controlled by flow cytometry by labelling with anti-CD14 and anti-CD62L. Only populations of 90% or more double positive cells were used.
Flow assays were conducted as described in a previous study (Bradfield, P. F., et al., JAM-C regulates unidirectional monocyte transendothelial migration in inflammation. Blood, 2007. 110(7): p. 2545-55). HUVECs were cultured at 1×10^5 cells/slide on Ibidi 6-chamber slides (80606; Ibidi) before treatment with TNFα (500 U/mL) for 6-10 hours. An individual chamber outlet was then attached to a calibrated pump (74 900; Cole Partner, Vernon Hills, IL) and flow was generated by perfusing wash buffer (M199 with 0.15% BSA) or a monocyte suspension (2.5×10^6 cells/mL) over the HUVEC monolayer. The flow rate was representative of shear rates in small venules (0.05 Pa). Observations made using phase-contrast microscopy (Model: Axiovert 100; Objective: 20×/0.3 NA air; Carl Zeiss) were recorded using a high-resolution camera (D70; Nikon, Zurich, Switzerland). Individual images were recorded every 30 seconds with Nikon capture software (v4.2) and compiled into movie sequences using Adobe Photoshop (CS6) and Image J (v1.5d), allowing analysis of individual monocytes over large areas. The tested compounds, e.g. compounds of the general Formula (I), were maintained at the specified concentration in all wash buffers throughout the course of the experiment. The compounds were preincubated separately on both HUVECs and monocytes 15 minutes prior to flow co-culture. HUVEC monolayers were washed for 10 minutes prior to a compound wash-in step to allow for this preincubation period. The monocyte suspension was then perfused over HUVECs for 4 minutes followed by 20 to 60 minutes with wash buffer. Time-lapse recording was started upon monocyte first-contact with the monolayer. Monocyte adhesion data are presented as the total number of monocytes per unit field. Transmigration events are presented as a percentage of total monocytes captured from flow per unit field. All experiments were carried out using quadruplicate fields and are presented as a mean value (±SEM).
A timeline is shown to represent the positioning and timing of an individual monocyte during movie analysis (marked ‘Timeline’). […]

Molecules are shown by their SMILES. “Also recorded” adds a separate entry of the source.

Consider `COC(=O)c1ccc(COc2c(C=C3C(=O)NC(=O)NC3=O)cccc2C(C)(C)C)cc1` [Formula 2, methyl 4-((2-(tert-butyl)-6-((2,4,6-trioxotetrahydropyrimidin-5(2H)-ylidene)methyl)phenoxy)methyl) benzoate], for which, in assay [1], the NAFLD activity score entry is on record as “significant reduction; also recorded: therapeutic effect”, the mesenteric fat weight entry was “significant reduction; also recorded: decreased”, the mice body weight entry is listed as “significant reduction” and the wet liver weight result is given as “significant reduction; also recorded: decreased”. For the same compound, the monocyte transmigration entry in assay [2] (30 μM) is “completely blocked”. The Monocyte adhesion entry in assay [2] (30 μM, flow 0.05 Pa for 30 minutes) is “unaffected”. The “Level of Transmigration Blockage (%)” value in assay [2] (30 μM, monocytes on TNF-activated HUVECs under flow 0.05 Pa) was 100%. The IC50 (commonly the concentration at which inhibition is half-maximal) in assay [2] (Homo sapiens, HUVEC, flow 0.05 Pa, n=3) came out at 2.4 µM. In addition, the Emax in assay [2] (Homo sapiens, HUVEC, monocyte transmigration inhibition, read-out: maximal efficacy) was found to be 48%. The “concentration below which not active on monocyte transmigration” value in assay [2] (dose response, 100 μM to 3 nM) is “below 300 nM”. The monocyte transmigration result in assay [2] (dose response, 3 μM) is “partial blocking”. In assay [2] (dose response, 30-100 μM), the monocyte transmigration result is “full blocking”. In addition, the “time of the maximal effect” value in assay [2] (monocyte transmigration, read at 10, 15, 20 and 25 minutes) is 20 min.

Source of the values: patent US12252472B1, “Barbituric acid derivatives, their preparation and use thereof as leukocyte transmigration inhibitors and for treating inflammatory diseases, autoimmune diseases and cancer” (BAR-ILAN UNIVERSITY, priority 2017, dated 2025).
